Data as given in patent publication US20180303807A1, “ANDROGEN RECEPTOR LIGANDS” (DUKE UNIVERSITY, priority 2015, published 2018).
Substitutions are numbered along the chain they refer to.

Columns and labels:
AR [1] = target: T1, AR (Homo sapiens, UniProt P10275); assay: Reporter gene assay, AR transcriptional (MMTV-Luc) in CV1 cells; type: cell-based; details: pcDNA-AR + MMTV-Luc, 0.1 nM R1881 plus test compound, 24 hrs, read-out: B1 = AR transcriptional IC50 (μM) in CV1 cells
T1 construct: expressed in transfected cells; host or cells: CV1 cells
T1 sequence (P10275 1-920): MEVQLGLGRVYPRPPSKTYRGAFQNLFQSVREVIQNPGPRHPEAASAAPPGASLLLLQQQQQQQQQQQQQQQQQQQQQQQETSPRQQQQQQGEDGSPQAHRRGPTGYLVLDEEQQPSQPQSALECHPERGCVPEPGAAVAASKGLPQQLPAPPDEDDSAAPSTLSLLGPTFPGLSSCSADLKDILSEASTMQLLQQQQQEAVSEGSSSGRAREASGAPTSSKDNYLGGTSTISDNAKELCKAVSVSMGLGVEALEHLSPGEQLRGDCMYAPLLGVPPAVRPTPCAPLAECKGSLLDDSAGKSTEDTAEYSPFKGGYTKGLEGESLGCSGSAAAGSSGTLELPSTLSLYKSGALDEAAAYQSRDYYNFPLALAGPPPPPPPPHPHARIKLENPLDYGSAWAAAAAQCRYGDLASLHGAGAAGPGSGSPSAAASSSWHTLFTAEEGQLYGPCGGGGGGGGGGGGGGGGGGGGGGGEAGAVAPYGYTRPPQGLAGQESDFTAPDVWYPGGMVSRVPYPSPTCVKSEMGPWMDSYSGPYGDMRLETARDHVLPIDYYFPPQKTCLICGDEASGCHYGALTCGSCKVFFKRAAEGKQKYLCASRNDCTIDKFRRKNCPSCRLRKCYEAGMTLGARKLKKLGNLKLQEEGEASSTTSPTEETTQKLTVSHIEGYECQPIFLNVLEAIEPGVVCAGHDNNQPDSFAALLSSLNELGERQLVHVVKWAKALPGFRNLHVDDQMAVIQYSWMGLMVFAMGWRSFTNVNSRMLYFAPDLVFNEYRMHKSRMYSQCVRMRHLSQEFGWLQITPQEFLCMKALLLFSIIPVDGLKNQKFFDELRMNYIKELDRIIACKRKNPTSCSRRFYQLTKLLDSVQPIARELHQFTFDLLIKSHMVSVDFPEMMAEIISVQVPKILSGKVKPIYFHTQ
Experimental: Reporter Gene Assay (IC50 determination, Table 2, B1-B3). CV1 cells were seeded into 96-well cell culture plates and transfected with Lipofectin. For AR transcriptional assays, the DNA mixture consisted of pcDNA-AR, MMTV-Luc (androgen responsive reporter gene), and Renilla-Luc (for assessing transfection efficiency and toxicity). Following overnight incubation, cells were induced with hormone (0.1 nM R1881 (synthetic AR agonist) plus increasing concentrations of test compound) for 24 hrs. Cells were lysed and luciferase activity was quantified using Dual Luciferase Reagent (DLR). IC50 determination was assessed using GraphPad Prism software.

AR [2] = target: T2, AR (Homo sapiens, UniProt P10275, T878A); assay: In Cell Western AR degradation assay in LNCaP cells; type: cell-based; details: 18 hrs, greater than 50% degradation at 10 μM (method says 20 μM)
T2 construct: endogenous in cells; host or cells: LNCaP cells
T2 sequence (P10275 1-920 T878A): T1 sequence (P10275 1-920) with T878A
Experimental: In Cell Western (AR degradation Assay, Table 2, B10). LNCaP cells were plated in 96-well clear bottom black plates (20K cells/well) in RPMI supplemented with 8% CFS. Following 48 hr incubation, cells were treated with hormone (20 μM test compound) for 18 hrs. Cells were fixed with formaldehyde (3.7%) and permeabilized using PBS (0.1% TRITON X-100). Cells were incubated with anti-AR antibody (N20, 1:2000), washed with PBS (0.1% Tween), and stained with 2nd antibody (Biotium CF770 goat anti-rabbit, 1:2000). AR protein expression was assessed using the LI-COR Odyssey imaging system. DRAQ5 (DNA stain, 1:10,000, Thermo Scientific) was used to normalize AR protein expression.
For B4-B7, scoring system is based on the relative AR target gene agonist/antagonist activity of test compounds when compared to benchmark compounds enzalutamide or bicalutamide. […] The lack of agonist activity is desirable for therapies intended to treat CRPC. For B4 and B6, a score of 1 indicates less agonism (highly desired activity) than benchmark compound enzalutamide, a score of 2 indicates equal agonism to enzalutamide (desirable), a score of 3 indicates agonism between enzalutamide and bicalutamide (less desirable activity), a score of 4 indicates equal agonism to bicalutamide (liability), and a score of 5 indicates higher agonism than bicalutamide (liability). For B5 and B7 a score of 1 indicates higher antagonist efficacy (highly desired activity) than benchmark compound enzalutamide, a score of 2 indicates equal antagonist efficacy to enzalutamide (desirable), a score of 3 indicates antagonist efficacy between enzalutamide and bicalutamide (less desirable activity), a score of 4 indicates antagonist efficacy equal to bicalutamide (liability), and a score of 5 indicates antagonist efficacy worse than bicalutamide (liability) For B9, Compounds that degrade AR (greater than 50% degradation at 10 μM) are indicated.

IC50 (AR [1]) | Compound | B9 = AR degradation in LNCaP cells (In-Cell Western) (AR [2])
> 10 µM | O=C1C2=C(C(=O)c3ccccc31)C(c1ccc(F)c(F)c1)c1c(ccc3ncccc13)N2 (racemic) [Compound A85, (±)-14-(3,4-difluorophenyl)naphtho[2,3-b][4,7]phenanthroline-8,13(7H,14H)-dione] | Degrader (Compounds that degrade AR (greater than 50% degradation at 10 μM) are indicated)
1.4 µM | CC1(C)CC(=O)C2=C(C1)Nc1ccc3cnccc3c1C2c1ccc(F)c(F)c1 (racemic) [Compound A91, (±)-12-(3,4-difluorophenyl)-9,9-dimethyl-8,9,10,12-tetrahydrobenzo[j][3,7]phenanthrolin-11(7H)-one] | Degrader (Compounds that degrade AR (greater than 50% degradation at 10 μM) are indicated)
0.9 µM | CC1(C)CC(=O)C2=C(C1)Nc1ccc3ncccc3c1C2c1cc2ccccc2s1 (racemic) [Compound A92, (±)-12-(benzo[b]thiophen-2-yl)-9,9-dimethyl-8,9,10,12-tetrahydrobenzo[b][4,7]phenanthrolin-11(7H)-one] | Degrader (Compounds that degrade AR (greater than 50% degradation at 10 μM) are indicated)
1.2 µM | CC1(C)CC(=O)C2=C(C1)Nc1ccc3nccnc3c1C2c1cc2ccccc2s1 (racemic) [Compound A93, (±)-12-(benzo[b]thiophen-2-yl)-9,9-dimethyl-8,9,10,12-tetrahydropyrazino[2,3-a]acridin-11(7H)-one] | Degrader (Compounds that degrade AR (greater than 50% degradation at 10 μM) are indicated)
> 10 µM | CC1(C)CC(=O)C2=C(C1)Nc1cc(N3CCCC3)ccc1C2c1ccc(Cl)s1 (racemic) [Compound A97, (±)-9-(5-chlorothiophen-2-yl)-3,3-dimethyl-6-(pyrrolidin-1-yl)-3,4,9,10-tetrahydroacridin-1(2H)-one] | Degrader (Compounds that degrade AR (greater than 50% degradation at 10 μM) are indicated)
0.5 µM | CC1(C)CC(=O)C2=C(C1)Nc1ccc3nccnc3c1C2c1ccc(Br)s1 (racemic) [Compound A100, (±)-12-(5-bromothiophen-2-yl)-9,9-dimethyl-8,9,10,12-tetrahydropyrazino[2,3-a]acridin-11(7H)-one] | Degrader (Compounds that degrade AR (greater than 50% degradation at 10 μM) are indicated)
0.4 µM | CC1(C)CC(=O)C2=C(C1)Nc1ccc3ncncc3c1C2c1ccc(Br)s1 (racemic) [Compound A102, (±)-12-(5-bromothiophen-2-yl)-9,9-dimethyl-8,9,10,12-tetrahydropyrimido[5,4-a]acridin-11(7H)-one] | Degrader (Compounds that degrade AR (greater than 50% degradation at 10 μM) are indicated)

Further lines, the compound ahead of its results:

Compound | IC50 (AR [1]) | B9 = AR degradation in LNCaP cells (In-Cell Western) (AR [2])
CC1(C)CC(=O)C2=C(C1)Nc1ccc3nccnc3c1C2c1ccc(F)c(F)c1 (racemic) [Compound A83, (±)-12-(3,4-difluorophenyl)-9,9-dimethyl-8,9,10,12-tetrahydropyrazino[2,3-a]acridin-11(7H)-one] | 7.4 µM | Degrader (Compounds that degrade AR (greater than 50% degradation at 10 μM) are indicated)
Cc1nc2ccc3c(c2nc1C)C(c1ccc(F)c(F)c1)C1=C(CC(C)(C)CC1=O)N3 (racemic) [Compound A84, (±)-12-(3,4-difluorophenyl)-2,3,9,9-tetramethyl-8,9,10,12-tetrahydropyrazino[2,3-a]acridin-11(7H)-one] | 55 µM | Degrader (Compounds that degrade AR (greater than 50% degradation at 10 μM) are indicated)
CC1(C)CC(=O)C2=C(C1)Nc1ccc3ncccc3c1C2c1ccc(Cl)cc1Cl (racemic) [Compound A88, (±)-12-(2,4-dichlorophenyl)-9,9-dimethyl-8,9,10,12-tetrahydrobenzo[b][4,7]phenanthrolin-11(7H)-one] | 1.1 µM | Degrader (Compounds that degrade AR (greater than 50% degradation at 10 μM) are indicated)
CC1(C)CC(=O)C2=C(C1)Nc1cc(N3CCCC3)ccc1C2c1ccc(F)c(F)c1 (racemic) [Compound A90, (±)-9-(3,4-difluorophenyl)-3,3-dimethyl-6-(pyrrolidin-1-yl)-3,4,9,10-tetrahydroacridin-1(2H)-one] | > 10 µM | Degrader (Compounds that degrade AR (greater than 50% degradation at 10 μM) are indicated)
CC1(C)CC(=O)C2=C(C1)Nc1ccc3cccnc3c1C2c1ccc(F)c(F)c1 (racemic) [Compound A96, (±)-12-(3,4-difluorophenyl)-9,9-dimethyl-8,9,10,12-tetrahydrobenzo[j][1,7]phenanthrolin-11(7H)-one] | 0.8 µM | Degrader (Compounds that degrade AR (greater than 50% degradation at 10 μM) are indicated)
CC1(C)CC(=O)C2=C(C1)Nc1ccc3ncncc3c1C2c1ccc(Cl)s1 (racemic) [Compound A101, (±)-12-(5-chlorothiophen-2-yl)-9,9-dimethyl-8,9,10,12-tetrahydropyrimido[5,4-a]acridin-11(7H)-one] | 0.8 µM | Degrader (Compounds that degrade AR (greater than 50% degradation at 10 μM) are indicated)
